This experiment relates to therapieresistenter chronischer Sensibilitätsstörungen an Armen und Händen mit Verlust der rohen Kraft. The experiment in a line: Treatment of therapy-resistant chronic sensory disturbances of arms and hands with loss of strength. Format: in vivo, Patienten.

For the compound `CCN(CC)CC(=O)Nc1c(C)cccc1C` [Lidocain], the “Remission der Kraftlosigkeit” value (2 to 4 deep paravertebral injections, middle or lower cervical spine, 0,1 Gew.-%) was “Spontane Remission”. The “Remission der Sensibilitätsstörungen” value (after further identical treatment sessions) is “vollständig nach zwei bis vier weiteren identisch reproduzierten Behandlungssitzungen”.

The values are drawn from patent EP2323645B1, “USE OF LOW-DOSE LOCAL ANAESTHETIC OR DERIVATIVES THEREOF FOR THERAPY OF CHRONIC PAIN, ESPECIALLY MIGRAINE” (priority 2008, dated 2010).
